Test results as given in patent US9539232B1, “Calebin A for osteoporosis” (priority 2016, dated 2017).

What was measured:
Type in all cases: cell-based, mouse
RAW 264.7 cells [1] = assay: Osteoclast differentiation assay, RANKL-induced (TRAP staining)
Description: (§1) To determine the effects of calebin A on RANKL-induced osteoclast differentiation, the RAW264.7 cells were cultured at a density of 5×10^3 cells per well in 24-well plates and allowed to adhere overnight. The medium was then replaced and the cells were treated with 5 nM RANKL for 5 days. After the incubation, the cells were subjected to TRAP staining using leukocyte acid phosphatase kit. For co-culture experiments with cancer cells, RAW 264.7 cells were seeded at a density of 5×10^3 cells per well and allowed to adhere overnight. U266 or MDA-MB-231 cells, at a density of 1×10^3 cells per well, were added to the RAW 264.7 cells the following day. The wells were treated with calebin A, and co-cultured for 5 days before being subjected to TRAP staining. For conditioned medium experiments, RAW 264.7 cells were seeded at a density of 5×10^3 cells per well and allowed to adhere overnight. The following day, the medium was replaced with ⅘ of RAW 264.7 medium (DMEM/F12) plus ⅕ of conditioned medium from MDA-MB-231 or U266 cells. For that procedure, the supernatant of cultured cancer cells that had been centrifuged was used. Finally, the RAW264.7 cells were cultured for 5 days and subjected to TRAP staining and an electrophoretic mobility shift assay (EMSA).

RAW 264.7 cells [2] = assay: Cell proliferation assay (MTT); conditions: 1, 2 or 5 mM calebin A, days 1, 3 and 5
Description: The effects of calebin A on the proliferation of RAW 264.7 cells were determined by measuring mitochondrial dehydrogenase activity with 3-[4,5-dimethylthiazol-2-yl]-2,5-diphenyl tetrazolium bromide (MTT) as the substrate as described in B. Sung, S. Prasad, V. R. Yadav, S. C. Gupta, S. Reuter, N. Yamamoto, A. Murakami, B. B. Aggarwal, PloS One 8 (2013) e64118. In brief, 3000 RAW264.7 cells (in 0.1 ml media) per well were incubated with various concentrations of calebin A, in triplicate, in 96-well plates at 37° C. for 1, 3, or 5 days. At each interval, MTT solution was added to each well, and the plates were incubated for 2 h at 37° C. An extraction buffer (100 mM) comprised of 20% sodium dodecyl sulphate (SDS) and 50% dimethyl formamide was added, and the cells were incubated overnight at 37° C. to dissolve the formazan formed during the reaction. The absorbance of the coloured product was then measured at 570 nm using a 96-well multiscanner (MRX Revelation, Dynex Technologies, Chantilly, Va.).

[3] = tested on: RAW 264.7 cells incubated in the presence of MDA-MB-231 cells; assay: Osteoclastogenesis induced by co-culture with MDA-MB-231 breast cancer cells (TRAP staining); conditions: calebin A 5 mM, co-incubated 5 days
Description: as §1

[4] = tested on: RAW 264.7 cells incubated in the presence of U266 cells; assay: Osteoclastogenesis induced by co-culture with U266 multiple myeloma cells (TRAP staining); conditions: calebin A 5 mM, co-incubated 5 days
Description: as §1

NF-κB activation = assay: Electrophoretic mobility shift assay for NFκB
Description: To assess NFκB activation in the nuclear extracts, EMSA was carried out using the procedure described by Y. Li, S. Li, Y. Han, J. Liu, J. Zhang, F. Li, Y. Wang, X. Liu, L. Yao, Eur. J. Pharmacol. 591 (2008) 252-258. In brief, nuclear extracts from untreated and RANKL-treated RAW 264.7 cells were incubated with the 32P-end-labeled 45-mer double-stranded NFκB oligonucleotide ([…] protein with 16 fM DNA) from the HIV long terminal repeat, 5′-[…]-3′(boldface indicates NFκB binding sites), for 30 min at 37° C. The DNA-protein complex formed was separated from free oligonucleotides on 6.6% native polyacrylamide gels. The dried gels were visualized with a Storm 820 molecular imager (Amersham, Piscataway, N.J., USA), and radioactive bands were quantified using a densitometer and Image Quant software ([…]).

IκBα = assay: Western blot for IκBα degradation and phosphorylation
Description: (§2) To determine protein expression levels, the cytoplasmic and whole cell extracts were prepared and were fractionated using 10% sodium dodecyl sulphate polyacrylamide gel electrophoresis (SDSPAGE). After electrophoresis, the proteins were transferred to nitrocellulose membranes, blotted with the relevant antibodies, and detected with enhanced chemiluminescence reagent (GE Healthcare, Piscataway, N.J.).

ERK1/2 phosphorylation = assay: Western blot for phospho-ERK1/2; conditions: calebin A pretreatment 8 h, RANKL 10 nM
Description: as §2

[5] = tested on: p65 transfected RAW 264.7 cells; assay: RANKL-induced osteoclastogenesis after transfection of p65 plasmid; conditions: 5 mM calebin A, 5 nM RANKL, 5 days
Description: To determine the role of NF-κB/p65 expression on calebin A-induced inhibition osteoclastogenesis, RAW 264.7 cells (5×10^5 cells/well) were plated in 6-well plates and transiently transfected by the calcium phosphate method with pNF-κB ([…]) and control plasmid pCMVFLAG1 DNA for 24 h. The medium was then replaced, and the cells were treated with RANKL (5 nM) and or calebin A (5 mM) for 5 days. All cells were subjected to TRAP staining using the leukocyte acid phosphatase kit.

[6] = tested on: RANK and c-Fms expression; assay: Immunoblot for M-CSF-induced osteoclast differentiation markers; conditions: 50 mM calebin A 8 h, 20 ng/mL M-CSF 24 h
Description: as §2
Further to examine the possible role of calebin A in the regulation of osteoclast differentiation in early stage, the RAW 264.7 cells were pre-treated with calebin A and induced by M-CSF for 24 h.

[7] = tested on: NFATc1, TRAP, cathepsin K and calcitonin R expression; assay: Western blot for RANKL-induced osteoclastogenesis-related marker expression
Description: as §2
NFATc1 plays a major role in the regulation of osteoclastogenesis. […] Basically, activation and nuclear translocation of NFATc1 and osteoclast differentiation are mediated by the expression of large number of marker genes, including TRAP, cathepsin K and calcitonin R, regulated by NFATc1. These genes are activated by the RANKL-mediated signalling pathway. Therefore, the effect of calebin A on the expression of RANKL-induced osteoclastogenesis related marker genes, were also examined.

[8] = calebin A 5 mM, measured on day 5

In the case of `COc1cc(/C=C/C(=O)COC(=O)/C=C/c2ccc(O)c(OC)c2)ccc1O` [Calebin A], the “Number of TRAP-positive osteoclasts, time course” value (RAW 264.7 cells [1]; RANKL 5 nM plus calebin A for 3, 4 or 5 days) was “decreased the number of TRAP-positive osteoclasts in a dose-dependent manner”, the “Osteoclast formation, calebin A added 1-2 days after RANKL stimulation” value (RAW 264.7 cells [1]; [8]) was “substantially inhibited osteoclast formation” and the “Osteoclast formation, calebin A added at days 3 and 4 after RANKL exposure” value (RAW 264.7 cells [1]; [8]) was “no longer prevented osteoclast formation”. The “Inhibition of TRAP-positive osteoclast number at highest dose” value (RAW 264.7 cells [1]; dose of 5 mM, all time points (3, 4, 5 days)) was “strongest inhibition”, the “Proliferation of RAW 264.7 cells (MTT)” value (RAW 264.7 cells [2]) was “did not significantly affect the proliferation of RAW 264.7 cells” and the “MDA-MB-231 cell-induced differentiation of RAW264.7 cells into osteoclasts” value [3] was “inhibited this differentiation”. For the same molecule, the “U266 cell-induced differentiation of RAW264.7 cells into osteoclasts” value [4] was “A similar pattern was observed”, the “NF-κB activation without RANKL (EMSA)” value (NF-κB activation; 50 mM calebin A without RANKL for 8 h) was “No effect on the activation of NF-κB” and the “RANKL-induced NF-κB activation (EMSA), dose dependence” value (NF-κB activation; dose of 50 mM, 8 h pretreatment, RANKL 30 min) was “completely suppressed NF-κB activation”. The “RANKL-induced NF-κB activation (EMSA)” value (NF-κB activation; pretreated with various concentrations for 8 h or 50 mM for various times, then RANKL 10 nM 30 min) was “completely abrogated RANKL-induced NF-κB activation”, the “IκBα phosphorylation at serines 32 and 36 induced by RANKL and ALLN co-treatment” value (IκBα; 50 mM calebin A 8 h, ALLN 30 min, RANKL 10 nM 15 min) was “inhibited the induction of phosphorylation” and the “RANKL-induced IκBα degradation (cytoplasmic, western blot)” value (IκBα; 50 mM calebin A 8 h pretreatment, 10 nM RANKL) was “complete inhibition of IκBα degradation”. For the same molecule, the “IκBα phosphorylation by calebin A alone” value (IκBα; calebin A alone, no RANKL) was “did not induce phosphorylation of IκBα”, the “RANKL-induced IκBα phosphorylation” value (IκBα; calebin A pretreatment (8 h), 10 nM RANKL) was “phosphorylation was completely inhibited” and the “RANKL-induced ERK1/2 phosphorylation” value (ERK1/2 phosphorylation) was “did not inhibit the RANKL-induced activation of ERK phosphorylation”. For the same molecule, the “RANKL induced osteoclastogenesis in cells transfected with control plasmid” value [5] was “almost completely inhibited”, the “RANKL induced osteoclastogenesis in p65 transfected RAW 264.7 cells” value [5] was “minimally inhibited” and the “M-CSF-induced expression of RANK” value [6] was “downmodulate M-CSF-induced expression of RANK”. For the same molecule, the c-Fms expression [6] was “no significant variation”, the “RANKL-induced NFATc1, TRAP, cathepsin K and calcitonin R expression” value ([7]; 50 mM calebin A 8 h, 10 nM RANKL 24 h) was “inhibits the RANKL-induced NFATc1, TRAP, cathepsin K and calcitonin R expression” and the “RANKL-induced NFATc1 expression” value ([7]; 50 mM calebin A 8 h pretreatment, 10 nM RANKL 24 h) was “abolished the RANKL-induced NFATc1 expression”. The “Expression of TRAP, cathepsin K and calcitonin R with calebin A alone” value ([7]; calebin A alone, no RANKL) was “no effect of calebin A alone”.
